Converted amounts (≈) assume the structure as drawn. The source made the active and inactive calls. The rule behind the calls is not given here. Where a SMILES comes first, the peptide text is derived from it. Bridges are numbered along the chain shown (N, C = ends). [ ]: non-standard residue; d: D form. The star is where a group is joined. X1 = CC[C@H](C)CCCCC(=O)*; Orn = NCCC[C@H](N)C(=O)O; Dab = NCC[C@H](N)C(=O)O
What was measured:
Acinetobacter baumannii = experiment: Antibacterial activity against Acinetobacter baumannii ATCC 19606 assessed as inhibition of bacterial growth measured after 24 hrs by turbidity based analysis; format: functional; settings: ATCC 19606 = CIP 70.34 = JCM 6841
Staphylococcus aureus [1] = experiment: Antibacterial activity against methicillin resistant Staphylococcus aureus assessed as inhibition of bacterial growth measured after 24 hrs by turbidity based analysis; format: functional
Cell membrane [2] = experiment: Induction of outer membrane permeabilization to NPN in Escherichia coli ATCC 8739 cells assessed as increase in fluorescence intensity by NPN-probe based fluorescence spectrophotometric analysis; format: subcellular
Escherichia coli [3] = experiment: Antibacterial activity against Escherichia coli ATCC 8739 assessed as inhibition of bacterial growth measured after 24 hrs by turbidity based analysis; format: functional
Cell membrane [4] = experiment: Induction of cytoplasmic membrane depolarization in Escherichia coli assessed as increase in fluorescence intensity a 1XMIC by DiSC3-5 dye based fluorescence method
Staphylococcus aureus [5] = experiment: Antibacterial activity against Staphylococcus aureus ATCC 6538 assessed as inhibition of bacterial growth measured after 24 hrs by turbidity based analysis; format: functional
Pseudomonas aeruginosa = experiment: Antibacterial activity against Pseudomonas aeruginosa ATCC 27853 assessed as inhibition of bacterial growth measured after 24 hrs by turbidity based analysis; format: functional
[6] = Hemolytic activity in human RBC assessed as induction of cell lysis measured after 30 mins by microtiter plate method; format: cell-based, Erythrocyte; settings: human red blood cells (erythrocytes)
Lipopolysaccharide (LPS) = experiment: Displacement of dansyl-polymyxinB from LPS (unknown origin) assessed as decrease in fluorescence intensity by fluorescence spectrophotometric analysis
Cell membrane [7] = experiment: Induction of cytoplasmic membrane depolarization in Staphylococcus aureus assessed as increase in fluorescence intensity a 1XMIC by DiSC3-5 dye based fluorescence method
Enterococcus faecalis = experiment: Antibacterial activity against Enterococcus faecalis ATCC 29212 assessed as inhibition of bacterial growth measured after 24 hrs by turbidity based analysis; format: functional
Cell membrane [8] = experiment: Induction of cytoplasmic membrane permeabilization in Staphylococcus aureus at 1 times MIC measured for 10 mins by propidium iodide dye based fluorescence assay
Cell membrane [9] = experiment: Induction of cytoplasmic membrane permeabilization in Staphylococcus aureus at 0.5 times MIC measured for 10 mins by propidium iodide dye based fluorescence assay; format: subcellular
Staphylococcus aureus [10] = experiment: Bactericidal activity against Staphylococcus aureus assessed as decrease in cell survival at 0.5XMIC measured after 24 hrs by colony counting assay; format: functional, organism-based
Lipid bilayer [11] = experiment: Binding affinity to eukaryotic cell membrane mimic DOPC/Cholesterol (3:1) large unilamellar vesicles assessed as calcein leakage measured after 30 mins fluorescence based assay
Cell membrane [12] = experiment: Induction of cytoplasmic membrane permeabilization in Escherichia coli at 1 times MIC measured for 10 mins by propidium iodide dye based fluorescence assay; format: subcellular
Escherichia coli [13] = experiment: Bactericidal activity against Escherichia coli assessed as decrease in cell survival at 0.5XMIC measured after 24 hrs by colony counting assay; format: functional, organism-based
Lipid bilayer [14] = experiment: Binding affinity to bacterial inner membrane mimic DOPE/DOPG (3:1) large unilamellar vesicles assessed as calcein leakage measured after 30 mins fluorescence based assay
Cell membrane [15] = experiment: Induction of cytoplasmic membrane permeabilization in Escherichia coli at 0.5 times MIC measured for 10 mins by propidium iodide dye based fluorescence assay; format: subcellular
L02 = experiment: Cytotoxicity against human L02 cells assessed as reduction in cell viability at 5 uM incubated for 24 hrs by CCK8 assay; format: cell-based; settings: l02, 24 h
Staphylococcus aureus [16] = experiment: Antibacterial activity against Staphylococcus aureus ATCC 6538 assessed as inhibition of bacterial growth measured after 17 passages by turbidity based analysis; format: functional, organism-based
Escherichia coli [17] = experiment: Antibacterial activity against Escherichia coli ATCC 8739 assessed as inhibition of bacterial growth measured after 17 passages by turbidity based analysis; format: functional, organism-based

SMILES | MIC (Acinetobacter baumannii) [µM] | MIC (Staphylococcus aureus [1]) [µM] | Activity (Cell membrane [2]) | MIC (Escherichia coli [3]) [µM] | Activity (Cell membrane [4]) | MIC (Staphylococcus aureus [5]) [µM] | MIC (Pseudomonas aeruginosa) [µM] | HC50 at 0.5 h [6] [µM] | Activity (Lipopolysaccharide (LPS)) | Activity (Cell membrane [7]) | MIC (Enterococcus faecalis) [µM] | other results
CC(C)C[C@@H]1NC(=O)[C@H](CCCN)NC(=O)[C@H](C(C)C)NC(=O)[C@H](CCCN)NC(=O)[C@H](CCCN)NC(=O)[C@H](CCCN)NC(=O)[C@@H](Cc2ccccc2)NC(=O)[C@H](Cc2ccccc2)NC(=O)[C@@H]2CCCN2C(=O)[C@@H](Cc2ccccc2)NC1=O | 10 (≈ 12.1 µg/mL) | 10 (≈ 12.1 µg/mL) | Active | 5 (≈ 6.04 µg/mL) | Active | 5 (≈ 6.04 µg/mL) | 20 (≈ 24.2 µg/mL) | 196 | Active | Active | 5 (≈ 6.04 µg/mL) | 
CC[C@H](C)CCCCC(=O)N[C@@H](CCN)C(=O)N[C@H](C(=O)N[C@@H](CCN)C(=O)N[C@H]1CCNC(=O)[C@H]([C@@H](C)O)NC(=O)[C@H](CCN)NC(=O)[C@H](CCN)NC(=O)[C@H](CC(C)C)NC(=O)[C@@H](Cc2ccccc2)NC(=O)[C@H](CCN)NC1=O)[C@@H](C)O (X1-[Dab]T[Dab][Dab][Dab][dF]L[Dab][Dab]T; lactam 4-C) |  |  |  |  |  |  |  |  | Active |  |  | 
CC(C)C[C@@H]1NC(=O)[C@H](CCCN)NC(=O)[C@H](C(C)C)NC(=O)[C@H](CCCN)NC(=O)[C@H](CCC(N)=O)NC(=O)[C@H](CCCN)NC(=O)[C@@H](Cc2ccccc2)NC(=O)[C@H](Cc2ccccc2)NC(=O)[C@@H]2CCCN2C(=O)[C@@H](Cc2ccccc2)NC1=O | 10 (≈ 12.2 µg/mL) | 10 (≈ 12.2 µg/mL) | Active | 5 (≈ 6.11 µg/mL) | Active | 5 (≈ 6.11 µg/mL) | 40 (≈ 48.9 µg/mL) | 282 |  | Active | 5 (≈ 6.11 µg/mL) | 
NCCC[C@@H]1NC(=O)[C@H](CCCN)NC(=O)[C@H](CCCN)NC(=O)[C@H](CCCN)NC(=O)[C@@H](Cc2ccccc2)NC(=O)[C@H](Cc2ccccc2)NC(=O)[C@@H]2CCCN2C(=O)[C@@H](Cc2ccccc2)NC(=O)[C@H](CCCN)NC(=O)[C@H](CCCN)NC1=O | 80 (≈ 97.9 µg/mL) | 40 (≈ 48.9 µg/mL) | Active | 40 (≈ 48.9 µg/mL) | inactive | 20 (≈ 24.5 µg/mL) | 80 (≈ 97.9 µg/mL) | > 400 | Active | inactive | 10 (≈ 12.2 µg/mL) | 
CC(C)C[C@@H]1NC(=O)[C@H](CCCN)NC(=O)[C@H](C(C)C)NC(=O)[C@H](Cc2ccc(O)cc2)NC(=O)[C@H](CCC(N)=O)NC(=O)[C@H](CC(N)=O)NC(=O)[C@@H](Cc2ccccc2)NC(=O)[C@H](Cc2ccccc2)NC(=O)[C@@H]2CCCN2C(=O)[C@@H](Cc2ccccc2)NC1=O [TYROCIDINE A] (cyclo(F[dF]NQYV[Orn]L[dF]P)) | 10 (≈ 12.7 µg/mL) | 20 (≈ 25.4 µg/mL) | Active | 20 (≈ 25.4 µg/mL) | Active | 2.5 (≈ 3.18 µg/mL) | 80 (≈ 102 µg/mL) | 14 | Active | Active | 2.5 (≈ 3.18 µg/mL) | Activity (Cell membrane [8]): Active; Activity (Cell membrane [9]): Active; Activity (Staphylococcus aureus [10]): inactive; Activity (Lipid bilayer [11]): Active; Activity (Cell membrane [12]): Active; Activity (Escherichia coli [13]): inactive; Activity (Lipid bilayer [14]): Active; Activity (Cell membrane [15]): Active; Activity (L02): Toxic
O=C(O)c1cn(C2CC2)c2cc(N3CCNCC3)c(F)cc2c1=O |  |  |  |  |  |  |  |  |  |  |  | Activity (Staphylococcus aureus [16]): inactive; Activity (Escherichia coli [17]): inactive
CC(C)[C@@H]1NC(=O)[C@H](CCCN)NC(=O)[C@H](CCCN)NC(=O)[C@H](CCCN)NC(=O)[C@@H](Cc2ccccc2)NC(=O)[C@H](Cc2ccccc2)NC(=O)[C@@H]2CCCN2C(=O)[C@@H](Cc2ccccc2)NC(=O)[C@H](CCCN)NC(=O)[C@H](CCCN)NC1=O | 80 (≈ 96.7 µg/mL) | 10 (≈ 12.1 µg/mL) |  | 80 (≈ 96.7 µg/mL) |  | 40 (≈ 48.3 µg/mL) | 80 (≈ 96.7 µg/mL) | > 400 | Active |  | 10 (≈ 12.1 µg/mL) | 
CC(C)C[C@@H]1NC(=O)[C@H](CCCN)NC(=O)[C@H](C(C)C)NC(=O)[C@H](CCCN)NC(=O)[C@H](CCC(N)=O)NC(=O)[C@H](CC(N)=O)NC(=O)[C@@H](Cc2ccccc2)NC(=O)[C@H](Cc2ccccc2)NC(=O)[C@@H]2CCCN2C(=O)[C@@H](Cc2ccccc2)NC1=O | 10 (≈ 12.2 µg/mL) | 10 (≈ 12.2 µg/mL) |  | 40 (≈ 48.9 µg/mL) |  | 10 (≈ 12.2 µg/mL) | 80 (≈ 97.7 µg/mL) | 43 |  |  | 5 (≈ 6.11 µg/mL) | 
CC(C)C[C@@H]1NC(=O)[C@H](CCCN)NC(=O)[C@H](C(C)C)NC(=O)[C@H](CCCN)NC(=O)[C@H](CCCN)NC(=O)[C@H](CC(N)=O)NC(=O)[C@@H](Cc2ccccc2)NC(=O)[C@H](Cc2ccccc2)NC(=O)[C@@H]2CCCN2C(=O)[C@@H](Cc2ccccc2)NC1=O | 10 (≈ 12.1 µg/mL) | 10 (≈ 12.1 µg/mL) |  | 10 (≈ 12.1 µg/mL) |  | 10 (≈ 12.1 µg/mL) | 20 (≈ 24.1 µg/mL) | 70 |  |  | 2.5 (≈ 3.02 µg/mL) | 
CC(C)C[C@@H]1NC(=O)[C@H](CCCN)NC(=O)[C@H](C(C)C)NC(=O)[C@H](Cc2ccc(O)cc2)NC(=O)[C@H](CCC(N)=O)NC(=O)[C@H](CCCN)NC(=O)[C@@H](Cc2ccccc2)NC(=O)[C@H](Cc2ccccc2)NC(=O)[C@@H]2CCCN2C(=O)[C@@H](Cc2ccccc2)NC1=O | 5 (≈ 6.35 µg/mL) | 20 (≈ 25.4 µg/mL) | Active | 20 (≈ 25.4 µg/mL) |  | 5 (≈ 6.35 µg/mL) | 80 (≈ 102 µg/mL) | 20 |  |  | 2.5 (≈ 3.18 µg/mL) | 
CC(C)C[C@@H]1NC(=O)[C@H](CCCN)NC(=O)[C@H](C(C)C)NC(=O)[C@H](Cc2ccc(O)cc2)NC(=O)[C@H](CCCN)NC(=O)[C@H](CCCN)NC(=O)[C@@H](Cc2ccccc2)NC(=O)C(Cc2ccccc2)NC(=O)[C@@H]2CCCN2C(=O)[C@@H](Cc2ccccc2)NC1=O (single isomer, unassigned) | 5 (≈ 6.28 µg/mL) | 5 (≈ 6.28 µg/mL) |  | 5 (≈ 6.28 µg/mL) |  | 5 (≈ 6.28 µg/mL) | 40 (≈ 50.3 µg/mL) | 24 |  |  | 2.5 (≈ 3.14 µg/mL) | 
CC(C)C[C@@H]1NC(=O)[C@H](CCCN)NC(=O)[C@H](C(C)C)NC(=O)[C@H](Cc2ccc(O)cc2)NC(=O)[C@H](CCCN)NC(=O)[C@H](CC(N)=O)NC(=O)[C@@H](Cc2ccccc2)NC(=O)[C@H](Cc2ccccc2)NC(=O)[C@@H]2CCCN2C(=O)[C@@H](Cc2ccccc2)NC1=O (cyclo(F[dF]N[Orn]YV[Orn]L[dF]P)) | 5 (≈ 6.28 µg/mL) | 5 (≈ 6.28 µg/mL) |  | 5 (≈ 6.28 µg/mL) |  | 2.5 (≈ 3.14 µg/mL) | 40 (≈ 50.3 µg/mL) | 10 |  |  | 1.25 (≈ 1.57 µg/mL) | 
